Where a SMILES comes first, the peptide text is derived from it. Bridges are numbered along the chain shown (N, C = ends). Where no end group is shown, it is not given here.
How the values were obtained:
Serum stability = assay type: in vitro ADME; details: 300 μM stock diluted 10 times in 100% human serum (male AB plasma), 37°C, analytical HPLC, 215 nm, triplicate; for stability in human serum (in words): 0-24 h
Experimental: The stability of peptides in human serum was examined using a protocol reported previously (Chan et al., [2011]). Briefly, stock solutions of peptides (300 μM) were diluted 10 times with pre-warmed 100% human serum isolated from male AB plasma (Sigma-Aldrich) and incubated at 37°C for 0, 1, 2, 3, 5, 8, 12 and 24 h. Controls with peptides in PBS were included. The reaction was stopped by denaturing the serum proteins with urea at a final concentration of 3 M at 4°C for 10 min, followed by precipitation of serum proteins with trichloroacetic acid at a final concentration of 7% (v/v) (4°C, 10 min) and centrifugation (17,000 g, 10 min). The supernatant of each sample was recovered and run on an analytical column using a linear gradient of 5–30% solvent B (acetonitrile 90% (v/v) with 0.045% (v/v) TFA in H2O) in solvent A (0.05% (v/v) TFA in H2O) over 25 min at a flow rate of 0.3 mL/min with monitoring at 215 nm. The elution profile of each peptide was identified by the PBS sample from 0 time point. The percentage of peptide remaining in serum-treated samples was determined by comparing the height of the peptide peak obtained at each time point with that of the peptide peak obtained at 0 time point. Each experiment was done in triplicate.
Figure 4 Serum-stability of tested peptides. Percentage of peptide remaining upon incubation with human serum. The portion of serum-treated peptide remaining was determined by calculating the height of the respective elution peak in analytical-HPLC and comparing it with control without incubation. Data points are means ± SD of three experiments.

HeLa cells = assay: Internalization of Alexa fluor 488-labeled peptides into HeLa cells (flow cytometry); assay type: cell-based, human; details: 8 μM Alexa fluor 488-labeled peptide, 1 h, 37°C, medium without serum, flow cytometry, 10,000 cells, mean ± SD of three independent experiments

YGRKARRRRRR [CTP512]
time to full degradation by proteases in serum (Serum stability; peak height vs 0 time point): ≤ 1 h

CC[C@H](C)[C@@H]1NC(=O)[C@@H]2CSSC[C@@H]3NC(=O)[C@H](C(C)C)NC(=O)CNC(=O)CNC(=O)[C@H](CC(=O)O)NC(=O)[C@H](CO)NC(=O)CNC(=O)[C@H](CO)NC(=O)CNC(=O)[C@@H]4CSSC[C@H](NC(=O)[C@H](CC(=O)O)NC(=O)[C@H](CO)NC(=O)[C@H](CC(=O)O)NC(=O)[C@H](CCCNC(=N)N)NC(=O)[C@H](CCCNC(=N)N)NC(=O)[C@H](CSSC[C@H](NC1=O)C(=O)N[C@@H](CCCCN)C(=O)NCC(=O)N[C@@H](CC(N)=O)C(=O)NCC(=O)N[C@@H](Cc1ccc(O)cc1)C(=O)N4)NC(=O)[C@H](CCCNC(=N)N)NC(=O)[C@H](CCCNC(=N)N)NC(=O)[C@H](CC(C)C)NC(=O)[C@H]([C@@H](C)CC)NC(=O)[C@H](CCCNC(=N)N)NC(=O)[C@@H]1CCCN1C3=O)C(=O)N1CCC[C@H]1C(=O)NCC(=O)N[C@@H](C)C(=O)N2 [MCo-RM1] (cyclo(ACICKGNGYCGSGSDGGVCPRILRRCRRDSDCPG); disulfide 2-19, 4-26, 10-32)
stability in human serum (in words) (Serum stability): stable in human serum

CC[C@H](C)[C@@H]1NC(=O)[C@@H]2CSSC[C@@H]3NC(=O)[C@H](C(C)C)NC(=O)CNC(=O)CNC(=O)[C@H](CC(=O)O)NC(=O)[C@H](CO)NC(=O)CNC(=O)[C@H](CO)NC(=O)CNC(=O)[C@@H]4CSSC[C@H](NC(=O)[C@H](CC(=O)O)NC(=O)[C@H](CO)NC(=O)[C@H](CC(=O)O)NC(=O)[C@H](CCCNC(=N)N)NC(=O)[C@H](CCCNC(=N)N)NC(=O)[C@H](CSSC[C@H](NC1=O)C(=O)N[C@@H](CCCCN)C(=O)NCC(=O)N[C@@H](CC(N)=O)C(=O)NCC(=O)N[C@@H](Cc1ccc(O)cc1)C(=O)N4)NC(=O)[C@H](CCCNC(=N)N)NC(=O)[C@H](CCCNC(=N)N)NC(=O)[C@H](CCCNC(=N)N)NC(=O)[C@H](C)NC(=O)[C@H](CCCNC(=N)N)NC(=O)[C@H](CCCNC(=N)N)NC(=O)CNC(=O)[C@H](Cc1ccc(O)cc1)NC3=O)C(=O)N1CCC[C@H]1C(=O)NCC(=O)N[C@@H](C)C(=O)N2 [MCo-CTP] (cyclo(ACICKGNGYCGSGSDGGVCYGRRARRRCRRDSDCPG); disulfide 2-19, 4-28, 10-34)
stability in human serum (in words) (Serum stability): stable in human serum | remaining at 12 h, 30 µM (Serum stability; 12 h, peak height vs 0 time point, read-out: peptide remaining intact after 12 h incubation in serum): > 60%

NH2-YGRKKRRQRRRPPQG-COOH [TAT, gold standard linear cell-penetrating peptide]
Fluorescence signal of HeLa cells, before trypan blue (mean fluorescence emission normalized to TAT after trypan blue) (HeLa cells; ex 488 nm / em 530/30 nm): 1.08 ± 0.07 | Fluorescence signal of HeLa cells, after trypan blue (mean fluorescence emission normalized to TAT after trypan blue) (HeLa cells; trypan blue 160 μg/mL): 1.00 ± 0.17

— PMC4321561, “Optimization of the cyclotide framework to improve cell penetration properties” (Frontiers in Pharmacology, 2015)
